These results are taken from patent US8044042B2, “Thienotriazolodiazepine compound and medicinal use thereof” (Mitsubishi Tanabe Pharma Corporation, priority 2005, dated 2011).

Experiment [1] concerns CD28-dependent T cell growth. Kind of experiment: Mouse T cell proliferation stimulated with anti-CD28 antibody and PMA (tritiumthymidine uptake). The experiment is classed as cell-based. As to the method:
The spleen was aseptically isolated from 6-7-week-old male BALB/c mice (CHARLES RIVER LABORATORIES JAPAN, INC.), and splenocyte suspension was prepared using RPMI1640 medium (manufactured by Sigma-Aldrich Ltd.). After hemolysis by a hypotonic treatment using a mixed solution of 0.83% aqueous ammonium chloride and Tris-HCl buffer (pH 7.65) at 9:1, a T cell concentrated fraction was obtained using a T cell concentrated column (manufactured by R&D systems). A cell suspension prepared using RPMI1640 medium containing 10% fetal calf serum (FCS, manufactured by Sigma-Aldrich Ltd.) was added to a flat-bottomed 96 well microtest plate (manufactured by Becton, Dickinson and Company) at 5×10^5 cells/well. Furthermore, a test compound diluted with a medium to the final concentration of 1-10000 nmol/L, 10 ng/mL PMA (manufactured by Sigma-Aldrich Ltd.) and 250 ng/mL anti-CD28 antibody (manufactured by BD pharmingen) were added, and the mixture was cultured under the conditions of 37° C., 5% carbon dioxide, 95% air for 20 hr. After the completion of culture, tritiumthymidine (specific activity: […], manufactured by MP Biochemicals) was added at 18.5 kBq/well, and the mixture was further cultured for 4 hr. Then, the cells were recovered in a glass fiber filter using a cell harvester (manufactured by Molecular Devices Corp.), the radioactivity taken into the cells was measured using a plate scintillation counter (microbeta 1460, manufactured by PerkinElmer), based on which the mouse T cell growth induced by stimulation with PMA and anti-CD28 antibody was measured. To be specific, suppressing rate (%)=(1−(radioactivity (cpm) of well added with test compound)/(radioactivity (cpm) of well without addition of test compound))×100 was calculated from the average amount of tritiumthymidine uptake (cpm) of T cells in each well added with various concentrations of test compound. In addition, based on the dose response curve obtained by plotting the average tritiumthymidine uptake amount (cpm) or suppressing rate on the vertical axis and the concentration on the transverse axis, the concentration of the compound (IC50) suppressing the value to 50% of that of the control group was determined by nonlinear regression.

Experiment [2] relates to Mouse Graft-Versus-Host Reaction (GvHR). Briefly: Mouse graft-versus-host reaction (GvHR). Conditions: 30 mg/kg oral for 28 days from splenocyte injection; P <0.05 vs vehicle. In kind it is in vivo. The method, then:
Cyclophosphamide (manufactured by Shionogi & Co., Ltd.) is administered to male BDF1 recipient mouse (8-week-old, CHARLES RIVER LABORATORIES JAPAN, INC.) at a dose of 300 mg/kg from the tail vein as a pretreatment at 24 hr prior to injection of spleen cells. The spleen was aseptically isolated from male C57BL/6 donor mouse (8-week-old, CHARLES RIVER LABORATORIES JAPAN, INC.), minced in RPMI1640 medium (manufactured by Sigma-Aldrich Ltd.), and passed through a stainless mesh to give a splenocyte single cell suspension. After removal of red blood cells by a hypotonic treatment using a mixed solution of 0.83% aqueous ammonium chloride and Tris-HCl buffer (pH 7.65) at 9:1, splenocytes were washed and suspended in physiological saline to give a splenocyte suspension. The prepared cells were injected at 1×10^8 cells/mouse into the tail vein to induce acute GvHR. The compound of the present invention or a pharmaceutically acceptable salt thereof was suspended or dissolved in 0.5% carboxymethylcellulose, and repetitively administered orally at a dose of 3-30 mg/kg body weight for 28 days from the day of splenocyte injection, and the influence on the survival time was evaluated. After induction of acute GvHR, the survival of each individual was determined every day, and the day of confirmed death was taken as the survival time of each individual. As for the survival time, log-rank test analysis was performed using the group administered with vehicle alone as a control, and the multiplicity was adjusted by the Holm's method, wherein p value of 0.05 or below was determined to be significant.

In experiment [3] the test system is Biphasic Auricular Edema in Egg Albumin-Induced Mouse. Kind of experiment: Egg albumin-induced mouse biphasic auricular edema. The experiment is classed as in vivo. The method, then: Using saline (0.5 ml) containing egg albumin (10 μg, manufactured by Sigma-Aldrich Ltd.) and 1 mg of aluminum hydroxide gel, 6 to 7-week-old male BALB/c mice (CHARLES RIVER LABORATORIES JAPAN, INC.) were intraperitoneally immunized. Two weeks later, egg albumin (1.25 μg) was intradermally injected into the auricle of the mice for challenge, whereby biphasic auricular edema was induced 1 hr and 24 hr after the challenge. The compound of the present invention or a pharmaceutically acceptable salt thereof was suspended or dissolved in 0.5% carboxymethylcellulose, and repetitively administered orally at a dose of 0.01-30 mg/kg body weight for 3 days, from 2 days before the antigen challenge to the day of challenge, using an oral gavage needle. As for this model, the thickness of the auricle of the mouse was measured using a dial gauge (manufactured by Ozaki MFG. Co. Ltd.) and used as an index of auricular edema. As regards the thickness of the auricle, each group (n=8) was evaluated using an average value and mean error, with a group administered only with a vehicle being control, and t-test was used for statistical analysis, wherein p value of 0.05 or below was determined to be significant.

The subject of experiment [4] is Mouse Skin Allograft Survival. Kind of experiment: Mouse skin allograft survival. In kind it is in vivo. Conditions: for median survival time of skin graft: vehicle 9.5. The method, then:
A tail skin graft (4×7 mm) of 5- to 7-week-old male AKR mouse (KYUDO Co. Ltd. was) was transplanted on the back of 5- to 7-week-old male C3H mouse (CHARLES RIVER LABORATORIES JAPAN, INC.), covered with aseptic gauze and bandaged. The bandage was removed at day 6 from the transplantation, and the graft was observed every day up to rejection. The rejection of the skin graft was determined to be the time point when 90% or more of the epithelium of the graft turned brown due to necrosis. The number of days from the transplantation to the rejection was taken as the survival time of the graft. The compound of the present invention or a pharmaceutically acceptable salt thereof was suspended or dissolved in 0.5% carboxymethylcellulose, and repetitively administered orally at a dose of 0.3-100 mg/kg body weight once a day for 14 days from the day of transplantation. As for the graft survival time, generalized Wilcoxon test analysis was performed using the group administered with vehicle alone as a control, and the multiplicity was adjusted by the Holm's method, wherein p value of 0.05 or below was determined to be significant.

The test system of experiment [5] is TYPE II Collagen-Induced Arthritis in DBA/1J Mouse. Kind of experiment: Type II collagen-induced arthritis in DBA/1J mouse. The following applies: 840 h, 3 mg/kg oral, 2 weeks from booster, average arthritis score at 35 days after primary immunization, P <0.05, read-out: suppressing rate (%) of arthritis score. In kind it is in vivo. As to the method: Bovine Type II collagen (purchased from collagen technical workshop) (100-200 μg) was mixed with complete Freund's adjuvant (manufactured by Sigma-Aldrich Ltd.) containing killed tuberculosis H37Ra. Using the resulting emulsion, 6 to 7-week-old male DBA/1J mice (CHARLES RIVER LABORATORIES JAPAN, INC.) were subcutaneously immunized at the tail root twice at 3 week intervals, whereby arthritis was developed. A test compound was suspended or dissolved in 0.5% carboxymethylcellulose (manufactured by Sigma-Aldrich Ltd.), and repetitively administered orally at a dose of 0.1-30 mg/kg body weight using an oral gavage needle for 2 weeks from the day of booster. As to this model, the symptoms of arthritis of four limbs were evaluated based on the following judgment criteria using the scores of from 0 to 4. The arthritis score of each mouse was shown by the total of the scores of four limbs (maximum: 16 points).
As regards the arthritis score, each group (n=5-6) was evaluated using an average value and mean error, with a group administered only with a vehicle being control, and Mann-Whitney U test was used for statistical analysis, wherein p value of 0.05 or below was determined to be significant. In the following, the suppressive action of the compound of the present invention on mouse collagen induced arthritis is shown by the suppressing rate (%) (1−(average arthritis score of compound administration group)/(average arthritis score of control group)×100) calculated from the average arthritis score at 35 days after the primary immunization.

As to `COC(=O)C[C@@H]1N=C(c2ccc(-c3ccc(OC)cc3)cc2)c2c(sc(CO)c2C)-n2c(C)nnc21` [Example 234, Methyl (S)-{2-hydroxymethyl-4-(4′-methoxybiphenyl-4-yl)-3,9-dimethyl-6H-thieno[3,2-f][1,2,4]triazolo[4,3-a][1,4]diazepin-6-yl}acetate], the 50% inhibitory concentration (IC50) in experiment [1] (T-cell, BALB/c mouse T cells, 10 ng/mL PMA and 250 ng/mL anti-CD28 antibody, tritiumthymidine uptake, read-out: CD28-dependent T cell growth suppressive action (IC50)) was 0.097 µM. The “CD28-dependent T cell growth suppressive action (in words)” value in experiment [1] (mouse T cells stimulated with PMA and anti-CD28 antibody) is “have a CD28-dependent T cell growth suppressive action”. Further, the median survival time in experiment [2] was 32 days. In experiment [3] (10 mg/kg oral for 3 days, 24 hr later, P <0.05), the “suppressing rate (%) of auricular edema” value turned out to be 35.8%. Also, the “suppressive action on edema (in words)” value in experiment [3] (10 mg/kg, 24 hr after induction with egg albumin) is recorded as “significant suppressive action on edema”. Further, the “median survival time of skin graft” value in experiment [4] (30 mg/kg oral once a day for 14 days, P 0.13) was determined as 11 days; in experiment [4] (100 mg/kg oral once a day for 14 days, P <0.05), 14 days. In addition, the “effect on graft survival time (in words)” value in experiment [4] (100 mg/kg) is on record as “significantly prolonged the graft survival time”. The inhibition in vivo at 3 mg/kg in experiment [5] was 53.6%.
